These results are taken from US8980948B2, “Topical application of travoprost for combating hair loss” (Galderma Research & Development, priority 2007, dated 2015).

One test relates to human hair follicles. The test can be described thus: Human hair follicles kept alive: elongation of the hair shaft in organ culture. In kind it is cell-based. The note with it: 1 μM in DMSO; for Elongation at D 7: cumulative from D0, mean. As for the experimental part: Human hair follicles are dissected while keeping the bulb and the connective and epithelial sheaths intact to be cultured in an appropriate medium which makes it possible to provide for the growth of the follicle ex vivo while keeping its structure intact in the growth or anagen phase (Stenn, Ann. N.Y. Acad. Sci., 1991, Dec. 26, 642, xi-xiii). The growth of the hair follicles in vitro is then evaluated using the measurement of elongation of the […].
Human hair follicles of “terminal” type are isolated from a skin sample resulting from facial surgery (lifting). For this, the skin is cut into pieces of approximately 5×5 mm. The hypodermis is separated from the dermis using a scalpel blade. The hair follicles are isolated from the hypodermal part under a binocular magnifier using fine forceps. Only the hair follicles in the growth phase with a bulb and intact connective and epithelial sheaths are retained for study.
The hair follicles thus isolated are incubated at 37° C. in a humid atmosphere (5% CO2 and 95% air) and are cultured individually in suspension for 7 days in William's E medium supplemented with 2 mM of L-glutamine, 10 μg/ml of insulin, 10 ng/ml of hydrocortisone and 1% of antibiotics/antimitotics. The culture medium is replaced every 2 or 3 days.
The travoprost in its acid form is taken up in DMSO at a concentration of 10^−2M and stored at −20° C. until used.
The surviving hair follicles are treated with the DMSO carrier at a final concentration of 0.1% or with the travoprost acid at a concentration of 1 μM in DMSO (final DMSO concentration also at 0.1%). For each condition, 22 hair follicles are treated individually subsequent to culturing at D0. In the case of a repeated treatment, the travoprost acid at 1 μM in DMSO is replaced at the time of the change in medium, this being done for 7 days. In the case of a single treatment, the travoprost acid at 1 μM DMSO is added to the culture medium just once in the culturing.
The growth of the hair follicles is determined by the measurement of the elongation of the hair shaft from day D0 to day D7. The elongation of the hair shaft is analyzed using Tina image analysis software. The measurements are carried out on hair follicles isolated at days D0, D3, D5 and D7.
The mean post-D0 length (by definition: the mean of the lengths measured on the days following D0) is considered:
The mean post-D0 length is a function: • of the initial length at D0 • of the treatment group • of other factors related to technological or biological variability.
In this study example, 15 hair follicles (all groups mixed up) out of 66 cultured were discarded.
It is assumed that the mean post-D0 length is the sum of four components:
Some measurements, referred to as “aberrant” measurements, can have a highly disruptive effect on the estimation of the effects of the model. A robust ANOVA method is applied with regard to these measurements: “LTS” (Least Trimmed Squares). The principle of the LTS method is as follows: • 1. A definition is made at the start of a fixed proportion p0 of observations which it is desired to ignore in the estimation of the effects (p0=10%) among all the observations present independently of the treatment (observations of the entire study). The corresponding number of observations is denoted n0. • 2. n0 points are selected at random and excluded from the estimation process. • 3. The parameters (effects) of the model are estimated. • 4. Among the observations, excluded and non-excluded, the n0 observations which are the least well predicted by the model are identified. • 5. The n0 least well predicted observations found in stage 4, are, in their turn, excluded from the estimation process. • 6. Stage 3 (estimation) is reverted to until the observations excluded in stage 5 remain unchanged (“convergence”).
The LTS process is repeated a large number of times (200) starting from different random selections. […]

In the next test the test system is C57BL/6 mouse. The test can be described thus: Model of regrowth of the body hair in the C57BL/6 mouse. The format is in vivo. The note with it: for Regrowth of the body hair versus ethanol ΔAUC (D 1-D 22): topical 50 μl. From the text:
The C57BU6 mice are each a particularly useful model for the study of hair growth:
In C57BU6 mice, the fur is black. In the trunk of the animals, the melanocytes are present solely in the hair follicles and the production of pigment is strictly correlated with the anagen phase of the hair cycle (Slominski A. and Paus R., J. Invest. Dermatol., 10, 90S-97S, 1993).
In young mice, the hair cycles are not in phase throughout the body but are synchronized in a region according to a rostro-caudal wave (Hale P. A. and Ebling F. J., J. Exp. Zool., 191, 49-62). At 42 days, the hair follicles of the dorsal region enter the telogen phase (Chase H. B. Physiol. Rev., 34, 113-126, 195).
Thus, after clipping and shaving the backs of C57BU6 mice aged 42 days, the regrowth can be easily visualized before the hair shafts appear at the surface by the grey appearance which the skin assumes. The delay in appearance of the grey color of the skin and the delay in appearance of the hair shafts after clipping and shaving represent criteria which give an account of the rate of entry of the hair follicle into the anagen phase and the rate of growth of the hair shaft. These two criteria will thus be used to evaluate the activity on the hair growth of the compounds tested.
The male C57BU6 mice are aged 42 days at the beginning of the study. The groups are formed of 10 animals.
On day D0, the backs of the animals are clipped with Minicut clippers equipped with a shoe (retention of 4 mm of hair shaft) and shaved with a Braun razor.
The study is carried out over 21 days.
The hair growth is evaluated according to the criteria defined in:
Minoxidil in solution in ethanol at 2.5% is used as positive control of the regrowth of the body hair.
Travoprost in its isopropyl ester form is used in solution in ethanol at 0.01%.
The travoprost, the minoxidil and the carrier are administered by the topical route using a pipette at the rate of 50 μl per application.
The minoxidil and the carrier are administered in repeated daily fashion from day 1 to day 21 of the study. Two different treatments are carried out with the travoprost: a first group receiving a single administration on day 1 of the study and a second group receiving five repeated daily and consecutive administrations from day 1 to day 5 of the study.
The following calculations are carried out: • Mean±SEM of the scores per day for each group treated. • Areas under the curve (AUC) of the regrowth scores per animal from D1 to D22. • Mean±SEM of the AUC values per treatment group. • Percentage of increase in the AUC values for each treated group versus the carrier group.
The AUC is obtained by summing the areas of the rectangles from the first and the final day of the study. The different treatment groups are compared with the carrier group with regard to this parameter by means of a Student's t-test.

Setting [1] is: single treatment at the time of culturing.

With `CC(C)OC(=O)CCC/C=C\C[C@@H]1[C@@H](/C=C/[C@@H](O)COc2cccc(C(F)(F)F)c2)[C@H](O)C[C@@H]1O` [Travoprost, propane-2-yl (Z)-7-[(1R,2R,3R,5S)-3,5-dihydroxy-2-[(1E,3R)-3-hydroxy-4-[3-(trifluoromethyl)phenoxy]but-1-enyl]cyclopentyl]hept-5-enoate], the “AUC (D 0-D 7) of hair shaft elongation” value in the test with human hair follicles (repeated treatment during 7 days) came out at 5.82; in the test on human hair follicles (setting [1]), 5.83. In addition, the figures for the “Elongation at D 7” value with human hair follicles (repeated treatment during 7 days of culturing) and in the test on human hair follicles (setting [1]) were 1.23 mm and 1.27 mm, respectively. In addition, the “Regrowth of the body hair versus ethanol ΔAUC (D 1-D 22)” value was “+7%” in the test on C57BL/6 mouse (0.01% in ethanol, repeated daily administrations (5 days)); “+31%” with C57BL/6 mouse (0.01% in ethanol, single administration on day 1); 31% in the test on C57BL/6 mouse (0.01% in ethanol, single administration on day 1, listed as travoprost). Further, the “regrowth of the body hair in comparison with the carrier” value in the test on C57BL/6 mouse (0.01%, repeated daily and consecutive administrations for 5 days) is on record as “do not accelerate the regrowth of the body hairs”; with C57BL/6 mouse (0.01%, single administration), “significantly accelerates the regrowth of the body hair”.
In the case of `Nc1cc(N2CCCCC2)nc(N)[n+]1[O-]` [Minoxidil, 2,4-diamino-6-piperidinopyrimidine 3-oxide], the “Regrowth of the body hair versus ethanol ΔAUC (D 1-D 22)” value is “+34%” with C57BL/6 mouse (2.5% in ethanol, repeated daily administrations (21 days)) and 30% with C57BL/6 mouse (2.5% in ethanol, repeated daily administrations (21 days), listed as minoxidil). Also, the “regrowth of the body hair in comparison with the carrier” value in the test on C57BL/6 mouse (2.5%, repeated daily administration for 21 days) was “accelerates the regrowth of the body hair”.
`O=C(O)CCC/C=C\C[C@@H]1[C@@H](/C=C/[C@@H](O)COc2cccc(C(F)(F)F)c2)[C@H](O)C[C@@H]1O` [travoprost acid]: in the test on human hair follicles (single treatment), the “elongation in the hair shaft compared with carrier DMSO” value is on record as “greater than that obtained with the carrier DMSO” and the “time at which the effect on elongation appears” value is “from the third day of treatment”.
